This note sets out measurements from ChEMBL document CHEMBL1139424, “Design, synthesis, and acetylcholinesterase inhibitory activity of novel coumarin analogues” (Bioorg Med Chem, 2008).

For this test, the target named is Acetylcholinesterase (Electrophorus electricus, UniProt O42275). As to the kind of experiment: Inhibition of Electrophorus electricus brain AChE by Ellman's method.
Acetylcholinesterase, sequence (O42275 whole entry): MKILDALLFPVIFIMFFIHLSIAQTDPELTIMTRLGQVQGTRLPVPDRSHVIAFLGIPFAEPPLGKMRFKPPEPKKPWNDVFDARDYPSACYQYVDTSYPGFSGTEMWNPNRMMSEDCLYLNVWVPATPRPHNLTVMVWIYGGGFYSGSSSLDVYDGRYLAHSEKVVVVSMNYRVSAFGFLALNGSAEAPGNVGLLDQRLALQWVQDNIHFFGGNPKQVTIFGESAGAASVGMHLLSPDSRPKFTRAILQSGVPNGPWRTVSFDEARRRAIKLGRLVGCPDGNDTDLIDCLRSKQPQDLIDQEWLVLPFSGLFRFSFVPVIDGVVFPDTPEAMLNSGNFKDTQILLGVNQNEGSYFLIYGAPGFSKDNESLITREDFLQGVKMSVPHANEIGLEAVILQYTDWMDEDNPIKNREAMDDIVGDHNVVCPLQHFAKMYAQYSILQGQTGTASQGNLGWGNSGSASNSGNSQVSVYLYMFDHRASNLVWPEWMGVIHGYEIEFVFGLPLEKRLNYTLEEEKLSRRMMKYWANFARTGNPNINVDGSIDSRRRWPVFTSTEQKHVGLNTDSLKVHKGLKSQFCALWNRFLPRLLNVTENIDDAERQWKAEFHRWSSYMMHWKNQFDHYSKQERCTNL

For `Cc1ccc2oc(=O)cc(N3CCN(c4ccccc4C)CC3)c2c1`, the IC50 (as a rule, the midpoint of a concentration-inhibition curve) was 7.9 µM.

In the case of `Cc1ccc2oc(=O)cc(N3CCN(c4ccc(Cl)cc4)CC3)c2c1`, it took 808 µM to reach half-maximal inhibition (IC50).

The compound `O=c1cc(Cl)c2cc(CN3CCN(c4ccccc4)CC3)ccc2o1` gave an IC50 of 19 µM.

The compound `Cc1ccc2oc(=O)cc(N3CCN(c4cc(Cl)ccc4Cl)CC3)c2c1` came in with an IC50 of 827 µM.

`O=C(c1ccc(Cl)cc1)N1CCN(C(=O)c2cc3ccccc3oc2=O)CC1` returned an IC50 of 21 µM.

Compound `O=C(c1cc2ccccc2oc1=O)N1CCN(c2ccccc2)CC1` returned an IC50 of 9.3 µM.

The compound `Cc1ccc2oc(=O)cc(N3CCN(C(=O)c4ccccc4)CC3)c2c1` showed an IC50 of 7.4 µM.

As for `Cc1ccc2oc(=O)cc(N3CCN(c4ccccc4)CC3)c2c1`, half-maximal inhibition (IC50) was put at 4.5 µM.

Compound `Cc1ccc(C(=O)N2CCN(c3cc(=O)oc4ccc(C)cc34)CC2)cc1` came in with an IC50 of 5.3 µM.

`O=C(c1cc2ccccc2oc1=O)N1CCN(c2ccc(Cl)cc2)CC1` came in with an IC50 of 98 µM.

Compound `Cc1ccccc1N1CCN(C(=O)c2cc3ccccc3oc2=O)CC1` yielded an IC50 of 6.7 µM.

Turning to `Cc1ccc2oc(=O)cc(N3CCN(C)CC3)c2c1`, the IC50 was found to be 901 µM.

With `O=C(c1cc2ccccc2oc1=O)N1CCN(c2cc(Cl)ccc2Cl)CC1`, inhibition was half-maximal at 14 µM (IC50).

In turn, `O=C(c1ccccc1Cl)N1CCN(C(=O)c2cc3ccccc3oc2=O)CC1` returned an IC50 of 26 µM.

`COc1ccccc1N1CCN(C(=O)c2cc3ccccc3oc2=O)CC1` registered an IC50 of 11 µM.

In turn, `COc1ccc(N2CCN(C(=O)c3cc4ccccc4oc3=O)CC2)cc1` gave an IC50 of 7.5 µM.

`O=C(c1ccc([N+](=O)[O-])cc1)N1CCN(C(=O)c2cc3ccccc3oc2=O)CC1` registered an IC50 of 34 µM.

In turn, `COc1ccc(N2CCN(c3cc(=O)oc4ccc(C)cc34)CC2)cc1` yielded an IC50 of 18 µM.

Take `Cc1ccc(C(=O)N2CCN(C(=O)c3cc4ccccc4oc3=O)CC2)cc1`: half-maximal inhibition (IC50) was put at 18 µM.

`O=C(c1ccccc1)N1CCN(C(=O)c2cc3ccccc3oc2=O)CC1`: the concentration for half-maximal inhibition (IC50) turned out to be 15 µM.

`Cc1ccc(N2CCN(C(=O)c3cc4ccccc4oc3=O)CC2)cc1` returned an IC50 of 7.6 µM.

In turn, `COc1ccccc1N1CCN(c2cc(=O)oc3ccc(C)cc23)CC1` gave an IC50 of 249 µM.

`Cc1ccc2oc(=O)cc(N3CCOCC3)c2c1` yielded an IC50 of 875 µM.

`Cc1ccc2oc(=O)cc(N3CCN(C(=O)c4ccccc4Cl)CC3)c2c1` registered an IC50 of 21 µM.

`Cc1ccc2oc(=O)cc(N3CCN(C(=O)c4ccc(Cl)cc4)CC3)c2c1` gave an IC50 of 16 µM.

For `O=C(c1cc2ccccc2oc1=O)N1CCOCC1`, the concentration for half-maximal inhibition (IC50) was determined as 101 µM.

`Cc1ccc(N2CCN(c3cc(=O)oc4ccc(C)cc34)CC2)cc1`: 61 µM corresponded to half-maximal inhibition (IC50).
